Patent US6461997B1, “Triazole sulfones having herbicidal activity” (Monsanto Technology LLC, priority 1999, dated 2002)

Columns and labels:
[1] = test system: BRAPP (broadleaf signalgrass); assay: Pre-plant incorporated (PPI) herbicidal activity, warm season; type: in vivo, Brachiaria platyphylla
Summary of the method: (§1)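 Pots are filled with topsoil, seeded, and topped with cover soil carrying the sprayed, mixed-in compound. After 0.64 cm overhead irrigation, growth proceeds at 30/21° C or 18/13° C day/night with mist or subirrigation. Scoring is percent inhibition relative to untreated controls about two weeks on.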

PANDI (fall panicum) = assay: as above; type: in vivo, Panicum dichotomiflorum; details: pre-plant incorporated; lowest tested rate with 80% or greater inhibition; about 14 days
Summary of the method: as §1

SETFA (giant foxtail) = assay: as above; type: in vivo, Setaria faberi
Summary of the method: as §1

AVEFA (wild oat) = assay: Post-emergence herbicidal activity, cool season; type: in vivo, Avena fatua; details: abraded plants sprayed at 300, 100, 30 and 10 g/ha; about 14 days after treatment
Summary of the method: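 Post-emergence foliar spray; plants abraded (garnet 200w, ~850 kPa sandblast) before application. Rates 300/100/30/10 g/ha in 50:50 acetone:water, 3,100 l/ha, 511 kPa. Greenhouse 18/13° C. day/night; % inhibition vs abraded unsprayed controls at ~14 days after treatment, GR80 derived.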

SORVU (shattercane) = assay: Pre-emergence herbicidal activity, warm season; type: in vivo, Sorghum vulgare; details: GR80 = lowest tested rate (300, 100, 30, 10 g/ha) with 80% or greater inhibition; approx. 14 days after treating; 30/21° C.
Summary of the method: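 Seeds sown in sterilised fertilised topsoil received surface-applied compound in 50:50 acetone/water, typically at 300, 100, 30 and 10 g/ha, then greenhouse-grown at 30/21° C (warm-season species) or 18/13° C (cool-season species). Percent inhibition versus untreated plants was scored at about 14 days, giving GR80; an asterisk marks activity short of 80% at the top rate.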

SINAR (wild mustard) = assay: Pre-plant incorporated (PPI) herbicidal activity, cool season; type: in vivo, Sinapis arvensis
Summary of the method: as §1

[2] = pre-plant incorporated, lowest tested rate with 80% or greater inhibition, about 14 days

Compound C=CCC(F)(F)S(=O)(=O)c1ncn(C(=O)N(CC)CC)n1 [Example 17, 1-(N,N-diethylcarbamoyl)-3-[(1,1-difluoro-3-butenyl)sulfonyl]-1,2,4-triazole] has an inhibition at 10 g/ha ([1]; Urochloa platyphylla, PPI application, 10 g/ha, read-out: Percent inhibition BRAPP) of 0%, an inhibition at 30 g/ha ([1]; Urochloa platyphylla, PPI application, 30 g/ha, read-out: Percent inhibition BRAPP) of 0% and an inhibition at 100 g/ha ([1]; Urochloa platyphylla, PPI application, 100 g/ha, read-out: Percent inhibition BRAPP) of 50%. For the same compound, the inhibition at 300 g/ha ([1]; Urochloa platyphylla, PPI application, 300 g/ha, read-out: Percent inhibition BRAPP) was 100%, the inhibition at 900 g/ha ([1]; Urochloa platyphylla, PPI application, 900 g/ha, read-out: Percent inhibition BRAPP) was 100% and the “PPI activity GR80, BRAPP” value [1, 2] was 100 g/ha. The “PPI activity GR80, PANDI” value (PANDI (fall panicum)) was 300 g/ha, the inhibition at 10 g/ha (SETFA (giant foxtail); Setaria faberi, PPI application, 10 g/ha, read-out: Percent inhibition SETFA) was 100% and the inhibition at 30 g/ha (SETFA (giant foxtail); Setaria faberi, PPI application, 30 g/ha, read-out: Percent inhibition SETFA) was 100%. For the same compound, the inhibition at 100 g/ha (SETFA (giant foxtail); Setaria faberi, PPI application, 100 g/ha, read-out: Percent inhibition SETFA) was 100%, the inhibition at 300 g/ha (SETFA (giant foxtail); Setaria faberi, PPI application, 300 g/ha, read-out: Percent inhibition SETFA) was 100% and the inhibition at 900 g/ha (SETFA (giant foxtail); Setaria faberi, PPI application, 900 g/ha, read-out: Percent inhibition SETFA) was 100%. For the same compound, the “PPI activity GR80, SETFA” value (SETFA (giant foxtail); [2]) was 10 g/ha, the “Post-emergence activity GR80, AVEFA” value (AVEFA (wild oat)) was “[empty]” and the “Pre-emergence activity (GR80) SORVU” value (SORVU (shattercane)) was 100 g/ha. The inhibition at 10 g/ha (SINAR (wild mustard); Brassica, weed, PPI application, 10 g/ha, read-out: Percent inhibition SINAR) was 70%, the inhibition at 30 g/ha (SINAR (wild mustard); Brassica, weed, PPI application, 30 g/ha, read-out: Percent inhibition SINAR) was 70% and the inhibition at 100 g/ha (SINAR (wild mustard); Brassica, weed, PPI application, 100 g/ha, read-out: Percent inhibition SINAR) was 90%. The inhibition at 300 g/ha (SINAR (wild mustard); Brassica, weed, PPI application, 300 g/ha, read-out: Percent inhibition SINAR) was 100%, the inhibition at 900 g/ha (SINAR (wild mustard); Brassica, weed, PPI application, 900 g/ha, read-out: Percent inhibition SINAR) was 100% and the “PPI activity GR80, SINAR” value (SINAR (wild mustard); [2]) was 30 g/ha.
